Data: patent US20250320224A1 (DOMAIN THERAPEUTICS, priority 2022, published 2025)
Where a name gives a salt, the structure may show the parent alone.

Each compound was assayed against T1, human PAR-2 (hPAR-2) receptor (Homo sapiens, UniProt P55085) (assay: In vitro human PAR-2 functional antagonist activity using calcium assays). Conditions: hPAR-2 endogenously expressed in HEK-293 cells; stimulated by 2-Furoyl-LIGRLO-NH2 peptide; Fluo4AM intracellular calcium, FLIPR Tetra.
T1 construct: expressed in HEK-293 cells in an endogenous manner; endogenous in cells; host or cells: HEK-293
T1 sequence (P55085 26-397): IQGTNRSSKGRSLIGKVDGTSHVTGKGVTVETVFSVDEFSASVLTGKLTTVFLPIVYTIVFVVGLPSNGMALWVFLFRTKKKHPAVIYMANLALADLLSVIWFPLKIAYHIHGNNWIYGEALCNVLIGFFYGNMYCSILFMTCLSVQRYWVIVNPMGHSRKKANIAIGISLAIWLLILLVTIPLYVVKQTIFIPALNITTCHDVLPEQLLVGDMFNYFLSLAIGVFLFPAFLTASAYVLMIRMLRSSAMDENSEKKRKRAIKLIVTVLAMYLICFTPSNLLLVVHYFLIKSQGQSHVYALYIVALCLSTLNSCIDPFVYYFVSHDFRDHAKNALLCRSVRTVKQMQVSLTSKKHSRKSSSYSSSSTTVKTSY
Assay type: cell-based
Description: Example 283: In Vitro Human PAR-2 Functional Antagonist Activity Using Calcium Assays
Examples of the present invention were tested successively for their agonist and antagonist activities on human PAR-2 (hPAR-2) receptor expressed in HEK-293 cells in an endogenous manner. Compounds exert agonist activity if, by themselves in absence of the 2-Furoyl-LIGRLO-NH2 peptide (selective hPAR-2 agonist), they activate PAR-2; they exert antagonist activity if they decrease the action of the 2-Furoyl-LIGRLO-NH2 peptide on the receptor. The assay used to determine compound activity is based on calcium measurement.
Cell Culture: HEK-293 cells were maintained in Dulbecco's Modified Eagle's Medium supplemented with 10% Foetal Calf Serum, 1% Penicillin/Streptomycin at 37° C./5% CO2. Flasks for tests (F75) are seeded with 6e+06 cells 24 h before the experiment at 37° C./5% CO2.
Calcium assay: Receptor activity was detected by changes in intracellular calcium measured using the fluorescent Ca^2+ sensitive dye, Fluo4AM (Molecular Probes).
The day of the assay, medium was replaced by assay buffer (HBSS 1× (Gibco 14175-053), Hepes 20 mM, MgSO4-7H2O 1 mM, Na2CO3 3.3 mM, CaCl2—2H2O 2.6 mM, 0.5% bovine serum albumin (BSA), Probenecid 2.5 mM, 0.1 mg/mL Pluronic Acid) and complemented with 1 μM Fluo4AM and cells were incubated during 1:30 h at 37° C.
Cells were then detached, resuspended in assay buffer and seeded in 384 wells, transparent-flat bottom black walled plates (2e+04 cells per well). Plates were incubated at +22° C. for 20 min. Compounds stock solutions were prepared in 100% DMSO and dilutions in test buffer were carried out in polypropylene plates with a digital dispenser (D300e, Tecan). Compounds were added to the cells and intracellular Ca^2+ measurements were collected at the same time on FLIPR Tetra® (Molecular Devices) with specific filters (Exc: 470-495 nm/Em: 515-575 nm).
Agonist and antagonist activities of compounds were consecutively evaluated on the same cell plate. Agonist activity was first measured after 10 min incubation with the compound alone. Then, cells were stimulated by an […] of the 2-Furoyl-LIGRLO-NH2 peptide and fluorescence was recorded for an additional 5 min. EC50 of the 2-Furoyl-LIGRLO-NH2 peptide was the concentration giving 80% of the maximal 2-Furoyl-LIGRLO-NH2 response. Agonist activities are evaluated in comparison to basal signals evoked by assay buffer or maximal 2-Furoyl-LIGRLO-NH2 response. […] Antagonist activities are evaluated in comparison to basal signals evoked by assay buffer or EC50 of 2-Furoyl-LIGRLO-NH2 alone.

First: CCN1CCN(C(=O)c2ccc3c(n2)C(C)(C)CN3c2ccc(Cl)c(F)c2)C(C)(C)C1=O [Example 19, 4-(1-(4-chloro-3-fluorophenyl)-3,3-dimethyl-2,3-dihydro-1H-pyrrolo[3,2-b]pyridine-5-carbonyl)-1-ethyl-3,3-dimethylpiperazin-2-one]
Second: CCN1CCN(C(=O)c2ccc3c(n2)C(C)(C)CN3c2ccc(Cl)c(F)c2)C(C)(C)C1 [Example 23, (1-(4-chloro-3-fluorophenyl)-3,3-dimethyl-2,3-dihydro-1H-pyrrolo[3,2-b]pyridin-5-yl)(4-ethyl-2,2-dimethylpiperazin-1-yl)methanone hydrochloride]
The IC50 of the first is lower: less than 500 nM for the first, 500 to 10000 nM for the second. The first is the more potent here.

First: CC1(C)CN(c2ccc(Cl)c(F)c2)c2ccc(C(=O)N3CCOCC3(C)C)nc21 [Example 20, (1-(4-chloro-3-fluorophenyl)-3,3-dimethyl-2,3-dihydro-1H-pyrrolo[3,2-b]pyridin-5-yl)(3,3-dimethylmorpholino)methanone]
Second: CC1(C)CN(c2ccc(Cl)c(F)c2)c2ccc(C(=O)N3CCNCC3(C)C)nc21 [Example 22, (1-(4-chloro-3-fluorophenyl)-3,3-dimethyl-2,3-dihydro-1H-pyrrolo[3,2-b]pyridin-5-yl)(2,2-dimethylpiperazin-1-yl)methanone hydrochloride]
The IC50 of the first is lower: less than 500 nM for the first, 500 to 10000 nM for the second. The first is the more potent here.

First: CC(C)(C)OC(=O)N1CCN(C(=O)c2ccc3c(n2)C(C)(C)CN3c2ccc(Cl)c(F)c2)C(C)(C)C1 [Example 21, tert-butyl 4-(1-(4-chloro-3-fluorophenyl)-3,3-dimethyl-2,3-dihydro-1H-pyrrolo[3,2-b]pyridine-5-carbonyl)-3,3-dimethylpiperazine-1-carboxylate]
Second: CC(=O)N1CCN(C(=O)c2ccc3c(n2)C(C)(C)CN3c2ccc(Cl)c(F)c2)C(C)(C)C1 [Example 24, 1-(4-(1-(4-chloro-3-fluorophenyl)-3,3-dimethyl-2,3-dihydro-1H-pyrrolo[3,2-b]pyridine-5-carbonyl)-3,3-dimethylpiperazin-1-yl)ethan-1-one]
The IC50 of the first is lower: less than 500 nM for the first, 500 to 10000 nM for the second. The first is the more potent here.

`CC1(C)CN(c2ccc(Cl)c(F)c2)c2ccc(C(=O)N3CCN(C(=O)CCC(=O)O)CC3(C)C)nc21` [Example 26, 4-(4-(1-(4-chloro-3-fluorophenyl)-3,3-dimethyl-2,3-dihydro-1H-pyrrolo[3,2-b]pyridine-5-carbonyl)-3,3-dimethylpiperazin-1-yl)-4-oxobutanoic acid] and `CC1(C)CN(c2ccc(Cl)c(F)c2)c2ccc(C(=O)N3CCN(C(=O)CCCC(=O)O)CC3(C)C)nc21` [Example 28, 5-(4-(1-(4-chloro-3-fluorophenyl)-3,3-dimethyl-2,3-dihydro-1H-pyrrolo[3,2-b]pyridine-5-carbonyl)-3,3-dimethylpiperazin-1-yl)-5-oxopentanoic acid] fall in the same range of IC50: 500 to 10000 nM for the first, 500 to 10000 nM for the second.

`CCOC(=O)CCCC(=O)N1CCN(C(=O)c2ccc3c(n2)C(C)(C)CN3c2ccc(Cl)c(F)c2)C(C)(C)C1` [Example 27, ethyl 5-(4-(1-(4-chloro-3-fluorophenyl)-3,3-dimethyl-2,3-dihydro-1H-pyrrolo[3,2-b]pyridine-5-carbonyl)-3,3-dimethylpiperazin-1-yl)-5-oxopentanoate] and `CC1(C)CN(c2ccc(Cl)c(F)c2)c2ccc(C(=O)N3CCN(c4nc(C(=O)O)cs4)CC3(C)C)nc21` [Example 43, 2-(4-(1-(4-chloro-3-fluorophenyl)-3,3-dimethyl-2,3-dihydro-1H-pyrrolo[3,2-b]pyridine-5-carbonyl)-3,3-dimethylpiperazin-1-yl)thiazole-4-carboxylic acid] cannot be ordered by IC50: less than 500 nM for the first, less than 500 nM for the second.

`CN1CNC(=O)C12CCN(C(=O)c1ccc3c(n1)C(C)(C)CN3c1ccc(Cl)c(F)c1)CC2` [Example 29, 8-(1-(4-chloro-3-fluorophenyl)-3,3-dimethyl-2,3-dihydro-1H-pyrrolo[3,2-b]pyridine-5-carbonyl)-1-methyl-1,3,8-triazaspiro[4.5]decan-4-one] and `CC1(C)CN(c2ccc(Cl)c(F)c2)c2ccc(C(=O)N3CCC(C(=O)O)CC3)nc21` [Example 33, 1-(1-(4-chloro-3-fluorophenyl)-3,3-dimethyl-2,3-dihydro-1H-pyrrolo[3,2-b]pyridine-5-carbonyl)piperidine-4-carboxylic acid] fall in the same range of IC50: 500 to 10000 nM for the first, 500 to 10000 nM for the second.

First: CC1(C)CN(c2ccc(Cl)c(F)c2)c2ccc(C(=O)N3C[C@@H]4[C@@H](CC(=O)O)[C@@H]4C3)nc21 [Example 31, 2-((1R,5S,6S)-3-(1-(4-chloro-3-fluorophenyl)-3,3-dimethyl-2,3-dihydro-1H-pyrrolo[3,2-b]pyridine-5-carbonyl)-3-azabicyclo[3.1.0]hexan-6-yl)acetic acid]
Second: CC1(C)CN(c2ccc(Cl)c(F)c2)c2ccc(C(=O)N3CCC(CC(=O)O)CC3)nc21 [Example 35, 2-(1-(1-(4-chloro-3-fluorophenyl)-3,3-dimethyl-2,3-dihydro-1H-pyrrolo[3,2-b]pyridine-5-carbonyl)piperidin-4-yl)acetic acid]
The IC50 of the first is lower: less than 500 nM for the first, 500 to 10000 nM for the second.

`CO[C@H]1CN(C(=O)c2ccc3c(n2)C(C)(C)CN3c2ccc(Cl)c(F)c2)CC[C@H]1CC(=O)O` [Example 37, 2-((3R,4S)-1-(1-(4-chloro-3-fluorophenyl)-3,3-dimethyl-2,3-dihydro-1H-pyrrolo[3,2-b]pyridine-5-carbonyl)-3-methoxypiperidin-4-yl)acetic acid] and `C[C@H](CC(=O)O)N(C)C(=O)c1ccc2c(n1)C(C)(C)CN2c1ccc(Cl)c(F)c1` [Example 47, (R)-3-(1-(4-chloro-3-fluorophenyl)-N,3,3-trimethyl-2,3-dihydro-1H-pyrrolo[3,2-b]pyridine-5-carboxamido)butanoic acid] fall in the same range of IC50: 500 to 10000 nM for the first, 500 to 10000 nM for the second.

`Cc1nc(N2CCN(C(=O)c3ccc4c(n3)C(C)(C)CN4c3ccc(Cl)c(F)c3)C(C)(C)C2)ncc1C(=O)O` [Example 39, 2-(4-(1-(4-chloro-3-fluorophenyl)-3,3-dimethyl-2,3-dihydro-1H-pyrrolo[3,2-b]pyridine-5-carbonyl)-3,3-dimethylpiperazin-1-yl)-4-methylpyrimidine-5-carboxylic acid hydrochloride] and `CC1(C)CN(c2ccc(Cl)c(F)c2)c2ccc(C(=O)N3CCN(c4ncc(C(=O)O)cn4)CC3(C)C)nc21` [Example 41, 2-(4-(1-(4-chloro-3-fluorophenyl)-3,3-dimethyl-2,3-dihydro-1H-pyrrolo[3,2-b]pyridine-5-carbonyl)-3,3-dimethylpiperazin-1-yl)-pyrimidine-5-carboxylic acid hydrochloride] cannot be ordered by IC50: less than 500 nM for the first, less than 500 nM for the second.

Compared with `Cc1cc(N2CCN(C(=O)c3ccc4c(n3)C(C)(C)CN4c3ccc(Cl)c(F)c3)C(C)(C)C2)nc(C)c1C(=O)O` [Example 45, 6-(4-(1-(4-chloro-3-fluorophenyl)-3,3-dimethyl-2,3-dihydro-1H-pyrrolo[3,2-b]pyridine-5-carbonyl)-3,3-dimethylpiperazin-1-yl)-2,4-dimethylnicotinic acid], `Cc1cc(N(C)CCN(C)C(=O)c2ccc3c(n2)C(C)(C)CN3c2ccc(Cl)c(F)c2)nc(C)c1C(=O)O` [Example 50, 6-((2-(1-(4-chloro-3-fluorophenyl)-N,3,3-trimethyl-2,3-dihydro-1H-pyrrolo[3,2-b]pyridine-5-carboxamido)ethyl)(methyl)amino)-2,4-dimethylnicotinic acid] is higher in IC50: less than 500 nM for the first, 500 to 10000 nM for the second. The first is the more potent here.

`CN(C(=O)c1ccc2c(n1)C(C)(C)CN2c1ccc(Cl)c(F)c1)C1(C(N)=O)CC1` [Example 48, N-(1-carbamoylcyclopropyl)-1-(4-chloro-3-fluorophenyl)-N,3,3-trimethyl-2,3-dihydro-1H-pyrrolo[3,2-b]pyridine-5-carboxamide] and `CC(C)(CO)NC(=O)c1ccc2c(n1)C(C)(C)CN2c1ccc(Cl)c(F)c1` [Example 51, 1-(4-chloro-3-fluorophenyl)-N-(1-hydroxy-2-methylpropan-2-yl)-3,3-dimethyl-2,3-dihydro-1H-pyrrolo[3,2-b]pyridine-5-carboxamide] fall in the same range of IC50: 500 to 10000 nM for the first, 500 to 10000 nM for the second.
